Experiments:
[1] = target: T1, K179A (Lys179 mutant of H1 receptor to alanine) (Homo sapiens, UniProt P35367, K179A); test: [3H]mepyramine displacement binding, membranes of CHO cells expressing K179A mutant
T1 construct: 3xHA (three copies of hemagglutinin YPYDVPDYA) (N); expressed in transfected cells; membrane preparations
Procedure: (§1) To evaluate changes in the binding affinity of bilastine for H1 receptors by mutations of Lys179^ECL2 and/or Lys191^5.39, the IC50 for bilastine was first obtained from the displacement curves for the binding of 3 nM [^3H] mepyramine to membrane preparations of CHO cells expressing wild-type human H1 receptors (WT), Lys179^ECL2 or Lys191^5.39 mutants of WT to alanine (K179A and K191A), and both Lys179^ECL2 and Lys191^5.39 mutants of WT to alanine (K179A + K191A) at 4 °C–37 °C (Figure 3). The Ki values for bilastine were then calculated from the IC50, as described in the materials and methods section.
(§2) CHO cells stably expressing WT, K179A, K191A, and K179A + K191A were cultured, and membrane preparations were obtained as described previously. […] The reaction mixture was filtered through glass fiber filters, and the radioactivity trapped on the filters was determined by scintillation counting. […] The protein content in the membrane preparations was determined using a BCA protein assay kit (Pierce, Rockford, IL, USA).
(§3) The IC50 for bilastine was determined by fitting the displacement curves to the one-site model (KaleidaGraph; Synergy Software, Reading, PA, USA):B = 100 − P × C/(C + IC50) where B is the amount of [^3H] mepyramine bound, C is the free concentration of bilastine, and P is the percentage of the binding sites of bilastine. […]

[2] = test system: wild-type human H1 receptors (WT); test: biochemical; type: binding; details: mutants K179A, K191A, K179A + K191A versus WT, 25 °C; significant
[3] = target: T2, wild-type human H1 receptors (WT) (Homo sapiens, UniProt P35367); test: biochemical; type: binding
T2 construct: 3xHA (three copies of hemagglutinin YPYDVPDYA) (N); membrane preparations

[4] = target: T3, K179A + K191A (both Lys179 and Lys191 mutant of H1 receptor to alanine) (Homo sapiens, UniProt P35367, K179A/K191A); test: [3H]mepyramine displacement binding, membranes of CHO cells expressing K179A + K191A mutant
T3 construct: 3xHA (three copies of hemagglutinin YPYDVPDYA) (N); expressed in transfected cells; membrane preparations
Procedure: as §1, §2, §3

[5] = target: T4, K191A (Lys191 mutant of H1 receptor to alanine) (Homo sapiens, UniProt P35367, K191A); test: [3H]mepyramine displacement binding, membranes of CHO cells expressing K191A mutant
T4 construct: 3xHA (three copies of hemagglutinin YPYDVPDYA) (N); expressed in transfected cells; membrane preparations
Procedure: as §1
CHO cells stably expressing WT, K179A, K191A, and K179A + K191A were cultured, and membrane preparations were obtained as described previously. The receptor binding assay with [^3H] mepyramine, a radioligand for H1 receptors, was performed in accordance with the methods described previously. Briefly, aliquots (0.1 mL) of membrane preparations (approximately 50 µg of membrane proteins) were incubated with 3 nM [^3H] mepyramine in the presence or absence of various concentrations of bilastine for 3 h at 37 °C, 24 h at 25 °C and 14 °C, and 7 days at 4 °C in normal HEPES buffer (NaCl, 120 mM; KCl, 5.4 mM; MgCl2, 1.6 mM; CaCl2, 1.8 mM, D-glucose, 11 mM; and HEPES, 25 mM; pH 7.4 at 37 °C; final volume 1 mL). The reaction mixture was filtered through glass fiber filters, and the radioactivity trapped on the filters was determined by scintillation counting. All determinations were made in quadruplicate. The protein content in the membrane preparations was determined using a BCA protein assay kit (Pierce, Rockford, IL, USA).
as §3

[6] = K191A versus WT, van 't Hoff analysis 4-37 °C, significant

T4 sequence (P35367 whole entry K191A): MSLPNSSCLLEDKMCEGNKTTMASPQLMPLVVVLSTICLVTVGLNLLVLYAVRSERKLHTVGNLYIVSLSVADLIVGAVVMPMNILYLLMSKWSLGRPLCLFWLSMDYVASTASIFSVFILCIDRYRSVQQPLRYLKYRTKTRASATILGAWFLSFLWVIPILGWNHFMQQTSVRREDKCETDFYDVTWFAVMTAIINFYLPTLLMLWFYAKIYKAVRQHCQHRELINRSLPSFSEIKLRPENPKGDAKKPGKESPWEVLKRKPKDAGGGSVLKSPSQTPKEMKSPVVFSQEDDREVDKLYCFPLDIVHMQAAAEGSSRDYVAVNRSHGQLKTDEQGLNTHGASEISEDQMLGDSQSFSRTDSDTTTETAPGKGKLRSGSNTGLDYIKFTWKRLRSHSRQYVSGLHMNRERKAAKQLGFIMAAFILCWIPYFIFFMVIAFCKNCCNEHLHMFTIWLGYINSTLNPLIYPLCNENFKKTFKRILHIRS
T3 sequence (P35367 whole entry K179A/K191A): as the sequence (P35367 whole entry K191A) above, with K179A counted along it
T1 sequence (P35367 whole entry K179A): as the sequence (P35367 whole entry K191A) above, with K179A, A191K counted along it
T2 sequence (P35367 whole entry): as the sequence (P35367 whole entry K191A) above, with A191K counted along it

For `CCOCCn1c(C2CCN(CCc3ccc(C(C)(C)C(=O)O)cc3)CC2)nc2ccccc21` [bilastine, Bilastine], the Ki [1] was 5.2 ± 1.18 nM, the “reduction in the enthalpy-dependent binding forces (∆H°) by mutation” value ([1]; K179A versus WT, van 't Hoff analysis 4-37 °C, not significant) was 0.454 kcal/mol and the “reduction of affinity for H1 receptors following mutation of Lys179 and/or Lys191” value [2] was 1.3 to 4.1 times. The Ki [3] was 1.92 ± 0.08 nM, the Ki [4] was 7.96 ± 0.76 nM and the “reduction in the entropy-dependent binding forces (∆T∆S°) by mutation” value ([4]; K179A + K191A versus WT, van 't Hoff analysis 4-37 °C, not significant) was 0.526 kcal/mol. The Ki [5] was 2.57 ± 0.16 nM, the “increase in enthalpy-dependent binding forces (∆H°) by mutation” value [5, 6] was 1.94 kcal/mol and the “reduction in the entropy-dependent binding forces (∆T∆S°) by mutation” value [5, 6] was 1.96 kcal/mol.

Source: publication PMC7915449, “Differential Regulation of Bilastine Affinity for Human Histamine H1 Receptors by Lys 179 and Lys 191 via Its Binding Enthalpy and Entropy” (International Journal of Molecular Sciences, 2021)
